Measurements: patent US5061794A, “Cephalosporin derivatives, and antibacterial agents” (priority 1986, dated 1991)
Like-named read-outs stand apart in the source and are kept apart here.

Columns and labels:
[1] = tested on: Ps. cepacia 23; assay: in vitro antibacterial activity, agar plate dilution method (MIC); format: cell-based, Pseudomonas cepacia; details: read-out: Minimum Inhibitory Concentration (MIC)
Summary of the method: (§1)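 MIC in μg/ml, read after 16 h at 37° C. on Mueller Hinton agar carrying graded compound levels; inoculum 10^6 CFU/ml from overnight Mueller Hinton broth.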

[2] = tested on: E. coli CSH(RE45); assay: microbe, parasite or virus in culture; format: cell-based; details: Escherichia coli, 16 h, read-out: Minimum Inhibitory Concentration (MIC), *E. coli CSH(RE45), lactamase-producing strain; 10^6 CFU/ml
Summary of the method: as §1

[3] = tested on: E. coli CSH2 (RK1); assay: microbe, parasite or virus in culture; format: cell-based; details: Escherichia coli, 16 h, read-out: Minimum Inhibitory Concentration (MIC), *E. coli CSH2 (RK1), lactamase-producing strain; 10^6 CFU/ml
Summary of the method: as §1

[4] = tested on: Ps. aeruginosa AKR17; assay: in vitro antibacterial activity, agar plate dilution method (MIC); format: cell-based, Pseudomonas aeruginosa; details: Pseudomonas aeruginosa, 16 h; Ps. aeruginosa AKR17; 10^6 CFU/ml; read-out: Minimum Inhibitory Concentration (MIC)
Summary of the method: as §1

[5] = tested on: Ps. aeruginosa IF03445; assay: as above; format: cell-based, Pseudomonas aeruginosa; details: Pseudomonas aeruginosa, 10^6 CFU/ml
Summary of the method: as §1

[6] = tested on: Ps. aeruginosa AK 109; assay: as above; format: cell-based, Pseudomonas aeruginosa; details: Pseudomonas aeruginosa, AK109, 16 h, read-out: Minimum Inhibitory Concentration (MIC)
Summary of the method: as §1

[7] = tested on: A. calcoaceticus No. 4; assay: as above; format: cell-based, Acinetobacter calcoaceticus; details: Acinetobacter calcoaceticus, NO.4, 16 h, 10^6 CFU/ml
Summary of the method: as §1

[8] = tested on: K. pneumoniae No. 42; assay: as above; format: cell-based; details: Klebsiella pneumoniae, 10^6 CFU/ml
Summary of the method: as §1

[9] = tested on: E. cloacae Nek 39; assay: as above; format: cell-based; details: Enterobacter cloacae, NEK39, 16 h, 10^6 CFU/ml
Summary of the method: as §1

[10] = tested on: S. marcescens IAM 1184; assay: as above; format: cell-based; details: Serratia marcescens, IAM1184, 16 h, read-out: Minimum Inhibitory Concentration (MIC)
Summary of the method: as §1

[11] = tested on: K. oxytoca GN10650; assay: as above; format: cell-based; details: Klebsiella oxytoca, GN10650, 16 h, read-out: Minimum Inhibitory Concentration (MIC), *K. oxytoca GN10650, lactamase-producing strain; 10^6 CFU/ml
Summary of the method: as §1

[12] = tested on: E. coli NIHJ JC2; assay: as above; format: cell-based; details: Escherichia coli, NIHJJC2, 16 h, read-out: Minimum Inhibitory Concentration (MIC), E. coli NIHJ JC2, 10^6 CFU/ml, 37° C.
Summary of the method: as §1

[13] = tested on: S. marcescens No. 16-2; assay: as above; format: cell-based; details: Serratia marcescens, NO.162, 16 h, read-out: Minimum Inhibitory Concentration (MIC)
Summary of the method: as §1

[14] = tested on: S. aureus 209P NIHJ-JC1; assay: as above; format: cell-based; details: Staphylococcus aureus, 16 h, read-out: Minimum Inhibitory Concentration (MIC), S. aureus 209P NIHJ-JC1; 10^6 CFU/ml, 37° C., 16 hours
Summary of the method: as §1

[15] = tested on: E. cloacae 963; assay: as above; format: cell-based; details: Enterobacter cloacae, 963, 16 h, read-out: Minimum Inhibitory Concentration (MIC), E. cloacae 963; 10^6 CFU/ml
Summary of the method: as §1

[16] = tested on: P. vulgaris HX-19; assay: as above; format: cell-based; details: Proteus vulgaris, HX19, 16 h, P. vulgaris HX-19; 10^6 CFU/ml; read-out: Minimum Inhibitory Concentration (MIC)
Summary of the method: as §1

[17] = tested on: E. coli GN5482; assay: as above; format: cell-based; details: Escherichia coli, GN5482, 16 h
Summary of the method: as §1

[18] = tested on: P. vulgaris No. 33; assay: as above; format: cell-based; details: Proteus vulgaris, NO.33, 16 h, read-out: Minimum Inhibitory Concentration (MIC), *P. vulgaris No. 33, lactamase-producing strain; 10^6 CFU/ml
Summary of the method: as §1

[19] = tested on: M. morganii GN5407; assay: as above; format: cell-based; details: Morganella morganii, GN5407, 16 h, read-out: Minimum Inhibitory Concentration (MIC), *M. morganii GN5407, lactamase-producing strain; 10^6 CFU/ml
Summary of the method: as §1

[20] = tested on: K. pneumoniae PCI-602; assay: as above; format: cell-based; details: Klebsiella pneumoniae, PCI602, 16 h, 10^6 CFU/ml
Summary of the method: as §1

[21] = A. calcoaceticus No. 4, read-out: Minimum Inhibitory Concentration (MIC)
[22] = NO.42, 16 h, read-out: Minimum Inhibitory Concentration (MIC), *K. pneumoniae No. 42, lactamase-producing strain
[23] = Burkholderia cepacia, 16 h, Ps. cepacia 23, 10^6 CFU/ml
[24] = IF03445, 16 h, read-out: Minimum Inhibitory Concentration (MIC), Ps. aeruginosa IF03445
[25] = read-out: Minimum Inhibitory Concentration (MIC), *E. cloacae Nek 39, lactamase-producing strain
[26] = read-out: Minimum Inhibitory Concentration (MIC), *E. coli GN5482, lactamase-producing strain, 10^6 CFU/ml
[27] = read-out: Minimum Inhibitory Concentration (MIC), K. pneumoniae PCI-602

CC(C)(O/N=C(\C(=O)N[C@@H]1C(=O)N2C(C(=O)O)=C(CSc3ncc(-c4ccc(O)cc4)o3)CS[C@H]12)c1csc(N)n1)C(=O)O [compound 24, disodium 7β-[2-(2-aminothiazol-4-yl)-2-(1-carboxylate-1-methylethoxyimino)acetamido]-3-[5-(4-hydroxyphenyl)oxazol-2-yl]thiomethyl-3-cephem-4-carboxylate, reference compound]
MIC ([1]; Burkholderia cepacia, 23, 16 h): 6.25 µg/mL
MIC [2]: 3.12 µg/mL
MIC [3]: 3.12 µg/mL
MIC [4]: > 100 µg/mL
MIC ([5]; 16 h, Ps. aeruginosa IF03445, read-out: Minimum Inhibitory Concentration (MIC)): 25 µg/mL
MIC ([6]; Ps. aeruginosa AK 109, 10^6 CFU/ml): 25 µg/mL
MIC [7, 21]: > 100 µg/mL
MIC [8, 22]: 12.5 µg/mL
MIC ([9]; *E. cloacae Nek 39, lactamase-producing strain, read-out: Minimum Inhibitory Concentration (MIC)): 25 µg/mL
MIC [10]: 3.12 µg/mL
MIC [11]: 6.25 µg/mL
MIC [12]: 12.5 µg/mL
MIC ([13]; *S. marcescens No. 16-2, lactamase-producing strain, 10^6 CFU/ml): 25 µg/mL
MIC [14]: 6.25 µg/mL
MIC [15]: 12.5 µg/mL
MIC [16]: < 0.006 µg/mL
MIC ([17]; read-out: Minimum Inhibitory Concentration (MIC)): 3.12 µg/mL
MIC [18]: 0.39 µg/mL
MIC [19]: 6.25 µg/mL
MIC ([20]; K. pneumoniae PCI-602, read-out: Minimum Inhibitory Concentration (MIC)): 0.2 µg/mL

C=CCO/N=C(\C(=O)N[C@@H]1C(=O)N2C(C(=O)O)=C(CSc3nnc(-c4ccc(O)c(O)c4)s3)CS[C@H]12)c1csc(N)n1 [compound 30, sodium 78-[2-allyloxyimino-2-(2-aminothiazol-4-yl)acetamido]-3-[5-(3,4-dihydroxyphenyl)-1,3,4-thiadiazol-2-yl]thiomethyl-3-cephem-4-carboxylate]
MIC [1, 23]: < 0.006 µg/mL
MIC [2]: 0.78 µg/mL
MIC [3]: 0.0125 µg/mL
MIC [4]: 25 µg/mL
MIC [5, 24]: 0.39 µg/mL
MIC [6]: 0.39 µg/mL
MIC [7, 21]: 0.2 µg/mL
MIC ([8]; 16 h, *K. pneumoniae No. 42, lactamase-producing strain, read-out: Minimum Inhibitory Concentration (MIC)): < 0.006 µg/mL
MIC [9, 25]: 0.1 µg/mL
MIC [10]: 0.0125 µg/mL
MIC [11]: 1.56 µg/mL
MIC [12]: 0.2 µg/mL
MIC [13]: 12.5 µg/mL
MIC [14]: 0.78 µg/mL
MIC [15]: 0.05 µg/mL
MIC [16]: < 0.006 µg/mL
MIC [17, 26]: 0.78 µg/mL
MIC [18]: 0.39 µg/mL
MIC [19]: 0.05 µg/mL
MIC [20, 27]: < 0.006 µg/mL

CON=C(C(=O)NC1C(=O)N2C(C(=O)O)=C(CSc3nc(-c4ccc(O)c(O)c4)cs3)CSC12)c1csc(N)n1 (stereo not drawn) [compound 39, sodium 7β-[2-(2-aminothiazol-4-yl)-2-methoxviminoacetamido]-3-[4-(3,4-dihydroxyphenvl)-thiazol-2-yl]thiomethyl-3-cephem-4-carboxylate]
MIC [1, 23]: 0.2 µg/mL
MIC [2]: 0.1 µg/mL
MIC [3]: 0.0125 µg/mL
MIC [4]: > 100 µg/mL
MIC [5, 24]: 1.56 µg/mL
MIC [6]: 3.12 µg/mL
MIC ([7]; read-out: Minimum Inhibitory Concentration (MIC), A. calcoaceticus No. 4): 0.39 µg/mL
MIC [8, 22]: 0.2 µg/mL
MIC [9, 25]: 0.39 µg/mL
MIC ([10]; S. marcescens IAM 1184, 10^6 CFU/ml): 0.05 µg/mL
MIC [11]: 1.56 µg/mL
MIC [12]: 0.1 µg/mL
MIC [13]: 3.12 µg/mL
MIC [14]: 1.56 µg/mL
MIC [15]: 0.025 µg/mL
MIC [16]: < 0.006 µg/mL
MIC [17, 26]: 0.78 µg/mL
MIC [18]: 0.05 µg/mL
MIC [19]: 0.05 µg/mL
MIC [20, 27]: < 0.006 µg/mL
